US8361797B2, “Myeloma cell culture in transferrin-free low iron medium” (Medimmune Limited, priority 2003, dated 2013)
“Also recorded” adds a separate entry of the source. Where two headings read alike, the source gives them in different places.

Tests used:
[1] = test system: recombinant GS-NS0 mouse myeloma cell line (Cell line A); assay type: cell-based
[2] = test system: recombinant GS-NS0 mouse myeloma cell line (Cell line A); assay type: cell-based; remark: listed apart in the source
hybridoma cell lines = conditions: cited from earlier work
hybridoma cells = conditions: cited from earlier work
[3] = test system: mouse hybridoma cell line (9E10)
Description: A mouse hybridoma cell line (9E10), producing anti-Myc antibody, previously subcultured in modified CDSS supplemented with 1 mg/L human transferrin and 6 mM Glutamine was used to inoculate experimental flasks at an inoculation density of 1×10^5 cells/ml.
Flasks were subcultured by dilution with fresh medium back to 1×10^5 cells/ml at 3 day intervals. On the third subculture flasks were allowed to overgrow. Cell counts were performed using the trypan blue exclusion method.

[4] = test system: recombinant GS-NS0 cell line (Cell line B)
Description: Cells resuspended in this medium were then used to inoculate experimental flasks at an inoculation density of 2×10^5 cells/ml.
All flasks were also supplemented with 1 ml/L of a 1000× concentrated cholesterol and fatty acid supplement (CLOC).
Flasks were subcultured by dilution with fresh medium back to 2×10^5 cells/ml at 5 day intervals. On the second subculture flasks were allowed to overgrow to saturation. Cell counts were performed using the trypan blue exclusion method. Antibody titre analysis was performed using analytical protein A hplc against a homologous standard.

cell line A = conditions: 1 mg/L FAC, serum free and protein free GSF medium
From the text: Innoculum for these fermentations was provided by subculture of the cells in media the same as that used in the fermentations.

[5] = test system: GS-NSO cell lines (Cell Lines C, D and E); conditions: protein free FAC medium, 4.5 L and 100 L
Description: Cell Line C was grown at both 4.5 and 100 L scale, Cell Line D at 4.5 L scale and Cell Line E at 100 L scale.

[6] = test system: recombinant NS0 mouse myeloma cell line selected using a G418 selection system; conditions: 1 mg/L FAC vs 1 mg/L transferrin and 0.1 mg/L FAC
From the text: After 5 days, flasks were subcultured and then allowed to follow the full growth cycle.

NSO myeloma cell lines = conditions: FAC alone, 0.2 mg/L; cited from earlier work

O=C([O-])CC(O)(CC(=O)[O-])C(=O)[O-].[Fe+3] [FC, ferric citrate]
concentration giving growth equivalent to transferrin containing control (maximum viable cell number and area underneath the growth curve) [1]: ≥ 10 mg/L | concentration of FC relative to FAC required for cell growth equivalent to transferrin [1]: 10 × | proliferation over subcultures [1]: unable to proliferate beyond the first subculture; also recorded: unable to proliferate beyond the second subculture | antibody titre compared to the transferrin containing control [2]: at least as much, and in the case of 10 mg/L FC significantly more antibody | concentration required to support hybridoma cell growth with equivalence to transferrin (hybridoma cell lines): 500 µM

O=c1cccccc1O [tropolone, reference compound]
optimum concentration (hybridoma cells; tropolone used with FAC): 5 µM

ferric ammonium citrate [FAC]
proliferation over subcultures ([1]; 0.2 mg/L): able to proliferate after the first division, but was then unable to grow further | concentration able to support continuous cell growth ([1]; duplicate of the experiment (FIG. 1c)): 0.2 mg/L | concentration able to support continuous cell growth over several subcultures and during the overgrow culture ([1]; modified CDSS, no transferrin, agitated suspension, three subcultures at 3 day intervals): ≥ 0.4 mg/L | concentration giving growth equivalent to transferrin containing control (maximum viable cell number and area underneath the growth curve) ([1]; overgrow cultures): ≥ 1 mg/L | more antibody produced at 0.4 mg/L than at 100 mg/L ([2]; culture with 0.4 mg/L vs culture with 100 mg/L): over 30% | antibody titre compared to the transferrin containing control ([2]; overgrow cultures, sandwich ELISA): at least as much, and in the majority of the cases significantly more antibody | proliferation over subcultures ([3]; 0.2 mg/L): unable to proliferate beyond the first subculture | proliferation over subcultures ([3]; 0.4 mg/L): unable to proliferate beyond the first subculture | proliferation over subcultures ([3]; 1 mg/L): unable to proliferate beyond the second subculture | proliferation over subcultures ([3]; 2 mg/L): unable to proliferate beyond the second subculture | proliferation over subcultures ([3]; 10 mg/L): unable to proliferate beyond the second subculture | FAC concentration required by hybridoma cell lines relative to GS-NS0 cells for continuous cell growth ([3]; agitated suspension culture): > 100 × | concentration required to support growth ([3]; hybridoma 9E10, agitated suspension): ≥ 50 mg/L | concentration required for growth equivalent to transferrin containing control, maximum viable cell number ([3]; overgrow cultures): 100 mg/L | concentration giving growth equivalent to transferrin containing control, cumulative cell hours (CCH) ([3]; overgrow cultures, integral of area underneath growth curve): 50 mg/L | concentration supporting growth equivalent to positive control culture ([4]; control 5 μM tropolone and 0.4 mg/L FAC, GSF medium): ≥ 0.8 mg/L | concentration supporting antibody production at least equivalent to control ([4]; overgrow cultures, protein A hplc): ≥ 0.8 mg/L | growth and antibody production (cell line A): able to support good growth and antibody production in both media | growth and antibody productivity [5]: supports good growth of, and antibody productivity in, a wide range of cell lines | growth vs transferrin containing medium [6]: Equivalent growth | support of hybridoma growth (hybridoma cell lines; 10 mg/L, static culture, WO 94/02592): able to support hybridoma growth in static culture | support of hybridoma growth (hybridoma cells; 10 mg/L, agitated suspension culture, WO 94/02592): this was not the case in agitated suspension culture | support of hybridoma growth (hybridoma cells; FAC alone, between 0.1 and 10 mg/L, no transferrin or tropolone): incapable of supporting the growth of hybridoma cells | optimum concentration (hybridoma cells; FAC used with tropolone): 0.2 mg/L | support of NSO myeloma growth (NSO myeloma cell lines): could not support the growth of the NSO myeloma cell lines
